Data taken from ChEMBL document CHEMBL3885881, “DrugMatrix”.

Species on record: Rattus norvegicus
Experiment: DrugMatrix - Regimen: Daily Repeat
Format: toxicity, organism-based, Sprague-Dawley
Set-up: regimen Daily Repeat, gender Male, age 6-8 weeks
Conditions: in vivo, po, route oral GAVAGE, vehicle .5 % CMC; for ABSOLUTE BASOPHIL / ABSOLUTE EOSINOPHIL / ABSOLUTE LYMPHOCYTE / ABSOLUTE MONOCYTE / ABSOLUTE SEGMENTED NEUTROPHIL / BASOPHIL / EOSINOPHIL / ERYTHROCYTE COUNT / HEMATOCRIT / HEMOGLOBIN / LEUKOCYTE COUNT / LYMPHOCYTE / MEAN CORPUSCULAR HEMOGLOBIN / MEAN CORPUSCULAR HEMOGLOBIN CONCENTRATION / MEAN CORPUSCULAR VOLUME / MONOCYTE / NEUTROPHIL / NUCLEATED RED BLOOD CELLS / PLATELET COUNT: tissue Blood; for ALANINE AMINOTRANSFERASE / ALBUMIN / ALKALINE PHOSPHATASE / ASPARTATE AMINOTRANSFERASE / BLOOD UREA NITROGEN / CARBON DIOXIDE / CHLORIDE / CHOLESTEROL / CREATINE PHOSPHOKINASE / CREATININE / GLUCOSE / LACTATE DEHYDROGENASE / LIPASE / PHOSPHORUS / POTASSIUM / SODIUM / TOTAL BILIRUBIN / TOTAL PROTEIN / URIC ACID: tissue Plasma
[1] = 3 mg/kg, 120 h, dose level Low, time 5 day
[2] = 30 mg/kg, 72 h, dose level High, time 3 day
[3] = 30 mg/kg, 120 h, dose level High, time 5 day

Question: What does the source list for `CC(=O)Nc1ccc2c(c1)Cc1ccccc1-2` [2-ACETYLAMINOFLUORENE]?
Answer: ABSOLUTE BASOPHIL [1]: 0 CELLS/uL; ABSOLUTE EOSINOPHIL [1]: 0 CELLS/uL; ABSOLUTE LYMPHOCYTE [1]: 14012 CELLS/uL; ABSOLUTE MONOCYTE [1]: 174.33 CELLS/uL; ABSOLUTE SEGMENTED NEUTROPHIL [1]: 1113.67 CELLS/uL; BASOPHIL [1]: 0%; EOSINOPHIL [1]: 0%; ERYTHROCYTE COUNT [1]: 5.69 x10E6/uL; HEMATOCRIT [1]: 34.77%; HEMOGLOBIN [1]: 13.53 G/DL; LEUKOCYTE COUNT [1]: 15.3 x10E3/uL; LYMPHOCYTE [1]: 92%; MEAN CORPUSCULAR HEMOGLOBIN [1]: 23.73 pg; MEAN CORPUSCULAR HEMOGLOBIN CONCENTRATION [1]: 39 G/DL; MEAN CORPUSCULAR VOLUME [1]: 61 fL; MONOCYTE [1]: 1%; NEUTROPHIL [1]: 7%; NUCLEATED RED BLOOD CELLS [1]: 0 /100WBC; PLATELET COUNT [1]: 1174.67 x10E3/uL; ALANINE AMINOTRANSFERASE [1]: 51 u/L; ALBUMIN [1]: 4.03 G/DL; ALKALINE PHOSPHATASE [1]: 355 u/L; ASPARTATE AMINOTRANSFERASE [1]: 106.67 u/L; BLOOD UREA NITROGEN [1]: 16.67 mg/dL; CARBON DIOXIDE [1]: 29.67 mmol/L; CHLORIDE [1]: 98 MEQ/L; CHOLESTEROL [1]: 70.67 mg/dL; CREATINE PHOSPHOKINASE [1]: 459.33 u/L; CREATININE [1]: 0.16 mg/dL; GLUCOSE [1]: 147 mg/dL; LACTATE DEHYDROGENASE [1]: 770.33 u/L; LIPASE [1]: 9.67 u/L; PHOSPHORUS [1]: 11.37 mg/dL; POTASSIUM [1]: 6.6 MEQ/L; SODIUM [1]: 139.93 MEQ/L; TOTAL BILIRUBIN [1]: 0.23 mg/dL; TOTAL PROTEIN [1]: 5.9 G/DL; URIC ACID [1]: 1.5 mg/dL; ABSOLUTE BASOPHIL [2]: 0 CELLS/uL; ABSOLUTE EOSINOPHIL [2]: 86 CELLS/uL; ABSOLUTE LYMPHOCYTE [2]: 12836 CELLS/uL; ABSOLUTE MONOCYTE [2]: 177.33 CELLS/uL; ABSOLUTE SEGMENTED NEUTROPHIL [2]: 1034 CELLS/uL; BASOPHIL [2]: 0%; EOSINOPHIL [2]: 0.67%; ERYTHROCYTE COUNT [2]: 5.86 x10E6/uL; HEMATOCRIT [2]: 36.83%; HEMOGLOBIN [2]: 14.6 G/DL; LEUKOCYTE COUNT [2]: 14.13 x10E3/uL; LYMPHOCYTE [2]: 90.67%; MEAN CORPUSCULAR HEMOGLOBIN [2]: 24.9 pg; MEAN CORPUSCULAR HEMOGLOBIN CONCENTRATION [2]: 39.6 G/DL; MEAN CORPUSCULAR VOLUME [2]: 62.87 fL; MONOCYTE [2]: 1.33%; NEUTROPHIL [2]: 7.33%; NUCLEATED RED BLOOD CELLS [2]: 0 /100WBC; PLATELET COUNT [2]: 1279.33 x10E3/uL; ALANINE AMINOTRANSFERASE [2]: 53.67 u/L; ALBUMIN [2]: 3.73 G/DL; ALKALINE PHOSPHATASE [2]: 368.67 u/L; ASPARTATE AMINOTRANSFERASE [2]: 126.33 u/L; BLOOD UREA NITROGEN [2]: 15 mg/dL; CARBON DIOXIDE [2]: 22.67 mmol/L; CHLORIDE [2]: 102 MEQ/L; CHOLESTEROL [2]: 53 mg/dL; CREATINE PHOSPHOKINASE [2]: 1143.67 u/L; CREATININE [2]: 0.21 mg/dL; GLUCOSE [2]: 158.67 mg/dL; LACTATE DEHYDROGENASE [2]: 858.33 u/L; LIPASE [2]: 10.33 u/L; PHOSPHORUS [2]: 10.73 mg/dL; POTASSIUM [2]: 6.07 MEQ/L; SODIUM [2]: 142.33 MEQ/L; TOTAL BILIRUBIN [2]: 0.2 mg/dL; TOTAL PROTEIN [2]: 5.3 G/DL; URIC ACID [2]: 1.47 mg/dL; ABSOLUTE BASOPHIL [3]: 0 CELLS/uL; ABSOLUTE EOSINOPHIL [3]: 0 CELLS/uL; ABSOLUTE LYMPHOCYTE [3]: 17906.67 CELLS/uL; ABSOLUTE MONOCYTE [3]: 125.33 CELLS/uL; ABSOLUTE SEGMENTED NEUTROPHIL [3]: 368 CELLS/uL; BASOPHIL [3]: 0%; EOSINOPHIL [3]: 0%; ERYTHROCYTE COUNT [3]: 6.43 x10E6/uL; HEMATOCRIT [3]: 39.07%; HEMOGLOBIN [3]: 15.4 G/DL; LEUKOCYTE COUNT [3]: 18.4 x10E3/uL; LYMPHOCYTE [3]: 97.33%; MEAN CORPUSCULAR HEMOGLOBIN [3]: 24 pg; MEAN CORPUSCULAR HEMOGLOBIN CONCENTRATION [3]: 39.43 G/DL; MEAN CORPUSCULAR VOLUME [3]: 60.83 fL; MONOCYTE [3]: 0.67%; NEUTROPHIL [3]: 2%; NUCLEATED RED BLOOD CELLS [3]: 0 /100WBC; PLATELET COUNT [3]: 1336 x10E3/uL; ALANINE AMINOTRANSFERASE [3]: 44 u/L; ALBUMIN [3]: 3.8 G/DL; ALKALINE PHOSPHATASE [3]: 317.33 u/L; ASPARTATE AMINOTRANSFERASE [3]: 100.33 u/L; BLOOD UREA NITROGEN [3]: 20.33 mg/dL; CARBON DIOXIDE [3]: 27.33 mmol/L; CHLORIDE [3]: 104.33 MEQ/L; CHOLESTEROL [3]: 46.67 mg/dL; CREATINE PHOSPHOKINASE [3]: 551.33 u/L; CREATININE [3]: 0.22 mg/dL; GLUCOSE [3]: 146.33 mg/dL; LACTATE DEHYDROGENASE [3]: 501 u/L; LIPASE [3]: 9.33 u/L; PHOSPHORUS [3]: 11.33 mg/dL; POTASSIUM [3]: 6.51 MEQ/L; SODIUM [3]: 146.97 MEQ/L; TOTAL BILIRUBIN [3]: 0.17 mg/dL; TOTAL PROTEIN [3]: 5.4 G/DL; URIC ACID [3]: 1.93 mg/dL
